# In US20240109903A1, “SUBSTITUTED HETEROCYCLES FOR TREATING CANCER” (Northwestern University, priority 2022, published 2024):
# Read-outs that look alike come from different tables or passages of the source.
# Tests used:
# MALME-3M = assay: NCI 60 five-dose screen MALME-3M; type: cell-based; conditions: Homo sapiens, Malme-3M
# M14 = assay: NCI 60 five-dose screen M14; type: cell-based; conditions: Homo sapiens
# K-562 = assay: NCI 60 five-dose screen K-562; type: cell-based; conditions: Homo sapiens
# HS 578T = assay: NCI 60 five-dose screen HS 578T; type: cell-based; conditions: Homo sapiens
# SR = assay: NCI 60 five-dose screen SR; type: cell-based, human
# SF-539 = assay: NCI 60 five-dose screen SF-539; type: cell-based; conditions: Homo sapiens
# OVCAR-5 = assay: NCI 60 five-dose screen OVCAR-5; type: cell-based; conditions: Homo sapiens
# [1] = tested on: MV-4-11 acute myeloid leukemia cells; assay: CellTiter-Glo 2.0 cell viability, MV-4-11; type: cell-based; conditions: Homo sapiens
# Procedure, shortened: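 MV4-11 cells plated at 3,000 cells/well on pre-dispensed compounds and incubated 3 days at 37 °C, 5% CO2. Viability read as ATP-dependent luminescence with CellTiter-Glo 2.0 after 20 min at ambient temperature, followed by regression analysis.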
# U251 = assay: NCI 60 five-dose screen U251; type: cell-based; conditions: Homo sapiens
# MOLT-4 = assay: NCI 60 five-dose screen MOLT-4; type: cell-based; conditions: Homo sapiens
# RXF 393 = assay: NCI 60 five-dose screen RXF 393; type: cell-based; conditions: Homo sapiens
# NCI-H23 = assay: NCI 60 five-dose screen NCI-H23; type: cell-based; conditions: Homo sapiens
# IGROV1 = assay: NCI 60 five-dose screen IGROV1; type: cell-based; conditions: Homo sapiens
# MDA-MB-231/ATCC = assay: NCI 60 five-dose screen MDA-MB-231/ATCC; type: cell-based; conditions: Homo sapiens
# DU-145 = assay: NCI 60 five-dose screen DU-145; type: cell-based; conditions: Homo sapiens
# KM12 = assay: NCI 60 five-dose screen KM12; type: cell-based; conditions: Homo sapiens
# UACC-62 = assay: NCI 60 five-dose screen UACC-62; type: cell-based; conditions: Homo sapiens
# TK-10 = assay: NCI 60 five-dose screen TK-10; type: cell-based; conditions: Homo sapiens
# SNB-19 = assay: NCI 60 five-dose screen SNB-19; type: cell-based; conditions: Homo sapiens
# HCT-116 = assay: NCI 60 five-dose screen HCT-116; type: cell-based; conditions: Homo sapiens
# HOP-62 = assay: NCI 60 five-dose screen HOP-62; type: cell-based; conditions: Homo sapiens
# HCC-2998 = assay: NCI 60 five-dose screen HCC-2998; type: cell-based; conditions: Homo sapiens
# UACC-257 = assay: NCI 60 five-dose screen UACC-257; type: cell-based; conditions: Homo sapiens
# SK-MEL-28 = assay: NCI 60 five-dose screen SK-MEL-28; type: cell-based; conditions: Homo sapiens
# [2] = read-out: LC50 (the source's name) (converted)
# [3] = read-out: LC50 (the source's name)
compound,measurement,setting,value
COc1cc(Cn2c(C(F)(F)F)cc3c(Cl)ncnc32)ccn1 [NUCC-0226694],GI50,MALME-3M,12.6 µM
same,IC50,MALME-3M,25.7 µM
same,IC (TGI),MALME-3M,25.7 µM
same,CC50,MALME-3M; [2],51.3 µM
same,GI50,M14,1.51 µM
same,IC50,M14,2.69 µM
same,IC (TGI),M14,4.17 µM
same,CC50,M14; [2],16.6 µM
same,GI50,K-562; K562,2.34 µM
same,IC50,K-562; K562,2.69 µM
same,IC (TGI),K-562; K562,100 µM
same,CC50,"K-562; K562, read-out: LC50 (the source's name)",≥ 100 µM
same,GI50,HS 578T,3.16 µM
same,IC50,HS 578T,24.5 µM
same,IC (TGI),HS 578T,16.6 µM
same,CC50,HS 578T; [3],≥ 100 µM
same,TGI,SR,4 −log[M]
same,GI50,SR; Homo sapiens,3.63 µM
same,IC50,SR; Homo sapiens,4.79 µM
same,CC50,"SR; Homo sapiens, read-out: LC50 (the source's name)",≥ 100 µM
same,GI50,SF-539,13.8 µM
same,IC50,SF-539,24.5 µM
same,IC (TGI),SF-539,26.9 µM
same,CC50,SF-539; [2],51.3 µM
same,GI50,OVCAR-5,15.8 µM
same,IC50,OVCAR-5,29.5 µM
same,IC (TGI),OVCAR-5,32.4 µM
same,CC50,OVCAR-5; [2],66.1 µM
same,IC50,"[1]; MV4-11, 72 h, MV-4-11 cells, 3 days, CellTiter-Glo 2.0, read-out: IC50 (uM) [Cell Type: MV-4-11]",0.999 µM
same,IC50,"[1]; MV4-11, bound stated in text, read-out: IC50 against MV-4-11 acute myeloid leukemia cells",< 2 µM
same,GI50,U251; U-251,15.1 µM
same,IC50,U251; U-251,26.9 µM
same,IC (TGI),U251; U-251,28.8 µM
same,CC50,"U251; U-251, read-out: LC50 (the source's name) (converted)",56.2 µM
same,GI50,MOLT-4,3.31 µM
same,IC50,MOLT-4,4.57 µM
same,IC (TGI),MOLT-4,100 µM
same,CC50,MOLT-4; [3],≥ 100 µM
same,GI50,RXF 393,7.94 µM
same,IC50,RXF 393,24.5 µM
same,IC (TGI),RXF 393,22.4 µM
same,CC50,RXF 393; [2],55 µM
same,GI50,NCI-H23,2.19 µM
same,IC50,NCI-H23,3.98 µM
same,IC (TGI),NCI-H23,4.9 µM
same,CC50,NCI-H23; [2],13.5 µM
same,GI50,IGROV1; IGROV-1,1.78 µM
same,IC50,IGROV1; IGROV-1,3.16 µM
same,IC (TGI),IGROV1; IGROV-1,3.63 µM
same,CC50,"IGROV1; IGROV-1, read-out: LC50 (the source's name) (converted)",7.41 µM
same,GI50,MDA-MB-231/ATCC,3.31 µM
same,IC50,MDA-MB-231/ATCC,7.94 µM
same,IC (TGI),MDA-MB-231/ATCC,12.6 µM
same,CC50,MDA-MB-231/ATCC; [2],42.7 µM
same,GI50,DU-145,1.78 µM
same,IC50,DU-145,3.09 µM
same,IC (TGI),DU-145,3.24 µM
same,CC50,DU-145; [2],5.89 µM
same,GI50,KM12,13.5 µM
same,IC50,KM12,22.9 µM
same,IC (TGI),KM12,30.2 µM
same,CC50,KM12; [2],69.2 µM
same,GI50,UACC-62,8.13 µM
same,IC50,UACC-62,15.8 µM
same,IC (TGI),UACC-62,20.4 µM
same,CC50,UACC-62; [2],45.7 µM
same,GI50,TK-10,19.1 µM
same,IC50,TK-10,45.7 µM
same,IC (TGI),TK-10,46.8 µM
same,CC50,TK-10; [2],≥ 100 µM
same,GI50,SNB-19,11.7 µM
same,IC50,SNB-19,21.4 µM
same,IC (TGI),SNB-19,24 µM
same,CC50,SNB-19; [2],49 µM
same,GI50,HCT-116,1.74 µM
same,IC50,HCT-116,2.63 µM
same,IC (TGI),HCT-116,4.27 µM
same,CC50,HCT-116; [2],15.1 µM
same,GI50,HOP-62,14.5 µM
same,IC50,HOP-62,27.5 µM
same,IC (TGI),HOP-62,29.5 µM
same,CC50,HOP-62; [2],61.7 µM
same,GI50,HCC-2998,1.78 µM
same,IC50,HCC-2998,3.16 µM
same,IC (TGI),HCC-2998,3.24 µM
same,CC50,HCC-2998; [2],6.03 µM
same,GI50,UACC-257,8.51 µM
same,IC50,UACC-257,19.5 µM
same,IC (TGI),UACC-257,21.9 µM
same,CC50,UACC-257; [2],49 µM
same,GI50,SK-MEL-28,4.57 µM
same,IC50,SK-MEL-28,10 µM
same,IC (TGI),SK-MEL-28,16.2 µM
same,CC50,SK-MEL-28; [2],40.7 µM
